How the values were obtained:
[1] = test system: five glioma cell lines (U-87MG, LN-18, LN-229, 8-MG-BA, Tu-2449); type: cell-based, human and mouse
Description: (§1) Two different TMZ schedules were tested. To test the effect of preincubation with TMZ, cells were seeded at a density of 1×10^5 cells per well on six-well plates. After 24 h, different concentrations of TMZ were added to the cells. The next day, cells were infected with RRV-GFP vector at a multiplicity of infection of 0.1. To test the effect of concomitant TMZ, cells were seeded at a density of 1×10^5 cells per well on six-well plates. After 48 h, cells were infected with RRV-GFP vector at a multiplicity of infection of 0.1 in the presence of different concentrations of TMZ. The following day, cells were transferred to T25 flasks keeping the indicated TMZ concentration. Cells were analyzed three times a week by enhanced green fluorescent protein fluorescence-activated cell sorting analysis for virus spread, maintaining the indicated TMZ concentration during the entire experiment.
(§2) To test any possible effect of TMZ on the spread of Toca 511, the same panel of glioma cells was treated with different concentrations of TMZ depending on the TMZ sensitivity of the cells determined in the clonogenic assay in FIG. 1b. In addition, vector with the same backbone as Toca 511 but encoding a GFP transgene (RRV-GFP) was used to assess vector spread by fluorescence-activated cell sorting analysis. Two TMZ treatment schedules were tested. […]

Tu-2449 = assay: In vitro RRV-GFP spread (FACS); type: cell-based, mouse; conditions: TMZ up to 20 mgml^−1 added 24 h before RRV-GFP, by day 19
Description: as §1, §2

[2] = Dose finding study 5-FC and TMZ, hematological examination, healthy athymic mice; type: in vivo, mouse
Description: To test the effect of the combination therapy of TMZ and Toca 511+5-FC treatment in a TMZ-sensitive cell line in vivo, the U-87MG cell line was used in an orthotopic xenograft glioma model in immunocompromised mice. A similar TMZ dose finding study as for the C3B6F1-immunocompetent mice was conducted in healthy athymic mice to evaluate the clinical effects and possible hematological changes during concomitant administration of 5-FC and TMZ. Two concentrations of TMZ (25 and 60 mgkg^−1) in combination with a fixed dose of 5-FC (500 mgkg^−1 per dose) were administered intraperitoneal SID for 4 consecutive days starting on days 1, 15, 29 and 43. Mice were terminated on day 53 for hematological examination.

[3] = Dose finding study 5-FC and TMZ, hematological examination, healthy B6C3/F1 mice; type: in vivo, mouse
Description: A dose finding study was conducted in healthy B6C3/F1 hybrid mice to evaluate the clinical effects and possible hematological changes during concomitant administration of 5-FC and TMZ. Both drugs are known to cause hematological toxicity in some circumstances and therefore it is important to examine any potential drug interaction with respect to this potentially toxic side effect. Three concentrations of TMZ (25, 60 and 125 mgkg^−1) in combination with a fixed dose of 5-FC (500 mgkg^−1 per dose) were administered intraperitoneal SID for 4 consecutive days starting on days 1, 8, 22 and 36. Mice were terminated on day 51 for hematological examination.

8-MG-BA = assay: In vitro RRV-GFP spread (FACS); type: cell-based, human; conditions: 1 and 2 mgml^−1 TMZ added 24 h before RRV-GFP, by day 16
Description: as §1
(§3) To test any possible effect of TMZ on the spread of Toca 511, the same panel of glioma cells was treated with different concentrations of TMZ depending on the TMZ sensitivity of the cells determined in the clonogenic assay in FIG. 1b. In addition, vector with the same backbone as Toca 511 but encoding a GFP transgene (RRV-GFP) was used to assess vector spread by fluorescence-activated cell sorting analysis. Two TMZ treatment schedules were tested. The first schedule tested treatment with varying concentrations of TMZ before and during the time of vector infection, and the second schedule tested treatment with varying concentrations of TMZ at the same time as the addition of vector. In the first schedule, glioma cells were incubated with different concentrations of TMZ 24 h before the addition of RRVGFP at a multiplicity of infection of 0.1. […] There was an initial lag or decrease in GFP positivity at earlier time points (FIG. 2a). […] In the second schedule, when TMZ and RRV-GFP were added to the glioma cells concomitantly, the same trend was observed; after an initial lag, cells reached nearly 100% GFP positivity in the presence of TMZ (FIG. 2b). The observed infectivity lag was likely due to induction of apoptosis in a certain percentage of cells with TMZ treatment. Surviving cells were still susceptible to infection with RRV-GFP and able to produce more RRV-GFP virus for further infection and spread within the culture dish. […] Rather the data is consistent with the conclusion that slowing of tumor cell replication with the anticancer drug TMZ, slows the replication of the RRV because of the inhibition of cancer cell replication and the requirement for cell replication for productive infection with RRV.

U-87MG = assay: In vitro RRV-GFP spread (FACS); type: cell-based, human; conditions: 10 mgml^−1 of TMZ
Description: as §1, §3

LN-18 = assay: In vitro RRV-GFP spread (FACS); type: cell-based, human; conditions: TMZ up to 20 mgml^−1 added 24 h before RRV-GFP, by day 19
Description: as §1, §3

LN-229 = assay: In vitro RRV-GFP spread (FACS); type: cell-based, human; conditions: 1 and 2 mgml^−1 TMZ added 24 h before RRV-GFP, by day 16
Description: as §1, §3

human NET cell lines = conditions: capecitabine and TMZ in human NET cell lines; cited from earlier work
[4] = test system: U-87MG cells (naive and Toca 511-transduced); assay: In vitro 5-FC sensitivity assay (XTT viability); type: cell-based, human; conditions: day 6
Description: (§4) Tu-2449 and U-87MG cells were infected with ˜1×10^4 transducing units (TU) ml^−1 of Toca 511 in the presence of polybrene (8 mgml^−1). Cells were passaged 2-3 times a week for 17 days. […] Cells were seeded on day 0 at a concentration of 1×10^3 cells per well of a 96-well plate in […] of culture medium (Dulbecco's modified Eagle's mediump10% fetal calf serum+gentamicin (17 mg per 100 ml)). On day 1, […] of culture medium containing 5-FC (range 0-1000 mgml^−1), TMZ (range 0-100 mgml^−1) or both drugs (5-FC (range 0-1.6 mgml^−1) and TMZ (2 mgml^−1)) was added to the cells. Viability was measured on day 6 using Cell Proliferation Kit II (XTT) (Roche, Indianapolis, Ind., USA) as recommended by the manufacturer.
(§5) Two glioma lines U-87MG (TMZ-sensitive) and Tu-2449 (TMZ-resistant) were chosen to examine the compatibility of TMZ and Toca 511p5-FC treatment in previously infected cells. These two cell lines were cultured as either non-transduced control or 100% Toca 511-transduced cells. Sensitivity to 5-FC was examined by measuring cell viability after culture in increasing amounts of 5-FC. […] In addition, cell viability was examined in the nontransduced and transduced cell lines treated with increasing amounts of TMZ.

[5] = test system: Tu-2449 cells (naive and Toca 511-transduced); assay: In vitro 5-FC sensitivity assay (XTT viability); type: cell-based, mouse; conditions: day 6
Description: as §4, §5

[6] = pharmacokinetic studies; cited from earlier work
[7] = highest TMZ dose (125 mgm^−2) coadministered with 5-FC

SMILES: Cn1nnc2c(C(N)=O)ncn2c1=O [TMZ, Temozolomide]
- GFP positivity [1]: ~100%
- GFP positivity (Tu-2449): ~100%
- hematological changes ([2]; TMZ 60 mgkg^−1 (human equivalent of 200 mgm^−2) in combination with 5-FC): substantially severe hematological changes (leukocytopenia, thrombocytopenia)
- increase in ALT activity ([2]; TMZ 60 mgkg^−1 in combination with 5-FC): five fold increase
- changes in hematological parameters ([2]; lower TMZ dose of 25 mgkg^−1 in combination with 5-FC): mild changes
- hematological changes ([3]; TMZ 25 mgkg^−1 per day (human equivalent of 75 mgm^−2) with 5-FC 500 mgkg^−1 per dose): without significant hematological changes
- leukocytes [3, 7]: almost complete loss
- platelet counts [3, 7]: significant reduction
- GFP positivity (8-MG-BA): 100%
- cells killed (U-87MG): ~90%
- GFP positivity (LN-18): ~100%
- GFP positivity (LN-229): 100%

SMILES: CCCCCOC(=O)Nc1nc(=O)n([C@@H]2O[C@H](C)[C@@H](O)[C@H]2O)cc1F [capecitabine]
- induction of apoptosis, combination effect (human NET cell lines): synergistic

SMILES: Nc1nc(=O)[nH]cc1F [5-FC, 5-fluorocytosine]
- sensitivity to 5-FC (cell viability) ([4]; Toca 511-transduced U-87MG): sensitive to 5-FC in a dose-dependent manner
- sensitivity to 5-FC (cell viability) ([4]; naive (non-transduced) U-87MG, up to 100 mgml^−1 5-FC): highly resistant
- sensitivity to 5-FC (cell viability) ([5]; Toca 511-transduced Tu-2449): sensitive to 5-FC in a dose-dependent manner
- sensitivity to 5-FC (cell viability) ([5]; naive (non-transduced) Tu-2449, up to 100 mgml^−1 5-FC): highly resistant

SMILES: O=c1[nH]cc(F)c(=O)[nH]1 [5-FU, 5-fluorouracil]
- blood brain barrier passage [6]: crosses the blood brain barrier
